Columns and labels:
ETB = biological target: T1, ETB (Canis lupus familiaris, UniProt P56497); assay: Isolated tissue study, isometric tension, dog saphenous veins; set-up: species or system mongrel dogs; conditions: antagonist added 30 minutes prior to ET-1 or STX6c
T1 construct: from tissue; host or cells: saphenous vein segments from mongrel dogs
T1 sequence (P56497 27-442): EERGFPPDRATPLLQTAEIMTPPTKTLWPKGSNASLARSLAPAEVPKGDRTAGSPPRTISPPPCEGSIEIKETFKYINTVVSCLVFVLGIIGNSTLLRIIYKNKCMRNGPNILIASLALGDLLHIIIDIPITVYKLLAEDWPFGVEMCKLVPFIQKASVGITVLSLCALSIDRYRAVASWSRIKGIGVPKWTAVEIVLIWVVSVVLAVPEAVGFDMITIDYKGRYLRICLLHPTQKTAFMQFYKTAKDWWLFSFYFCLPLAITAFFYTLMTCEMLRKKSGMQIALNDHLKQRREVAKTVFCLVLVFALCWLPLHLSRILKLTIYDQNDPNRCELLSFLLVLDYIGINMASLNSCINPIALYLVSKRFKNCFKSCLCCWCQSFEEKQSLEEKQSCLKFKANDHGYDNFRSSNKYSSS
Description: (§1) 2. Isolated Tissue Studies
(§2) Studies measuring isometric tension are carried out according to the procedure of Shetty et al. (Biochem. Biophys. Res. Comm. 1993; 191:459-464). Saphenous veins (for antagonism of ETB) are obtained from mongrel dogs which are anesthetized with pentobarbital. Thoracic aortas are obtained from Sprague-Dawley male rats (for antagonism of ETA). Coronary arteries are obtained from porcine hearts. Tissue segments (4-5 mm) from each vascular preparation are equilibrated for 90 minutes during which time the tissues are adjusted to a preload tension of 2 gm, except for the porcine coronary which is adjusted to 4 gm preload. Concentration-response curves are generated by the cumulative addition of the peptides. Antagonists are added 30 minutes prior to the addition of ET-1 or STX6c. Contractions are expressed as a percentage of the response to […] KCl. Relaxation is quantitated by expressing the tension after relaxation as a percent of the tension induced by 1 mM phenylephrine.

human ETA = biological target: T2, human ETA (Homo sapiens, UniProt P25101); assay: Competition binding of [125I] ET-1 to CHO-ETA membranes; conditions: [125I] ET-1, 2 hours at 37° C.
T2 construct: expressed in transfected cells; host or cells: CHO (Chinese hamster ovary) cells, membrane preparation
T2 sequence (P25101 21-427): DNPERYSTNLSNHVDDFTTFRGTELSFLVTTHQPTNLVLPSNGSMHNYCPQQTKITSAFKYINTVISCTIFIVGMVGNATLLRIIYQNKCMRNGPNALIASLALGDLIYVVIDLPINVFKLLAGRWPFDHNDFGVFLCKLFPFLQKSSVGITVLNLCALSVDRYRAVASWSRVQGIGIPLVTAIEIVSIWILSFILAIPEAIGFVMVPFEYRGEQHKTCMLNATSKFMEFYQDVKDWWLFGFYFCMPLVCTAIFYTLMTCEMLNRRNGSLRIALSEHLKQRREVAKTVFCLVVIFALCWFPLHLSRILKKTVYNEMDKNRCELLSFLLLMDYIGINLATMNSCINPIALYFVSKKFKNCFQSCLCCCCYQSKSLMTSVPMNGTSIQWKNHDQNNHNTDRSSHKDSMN
Description: (§3) 1. Binding Studies--ETA and ETB ;
(§4) Chinese hamster ovary cells expressing human ETA (CHO-ETA) or ETB (CHO-ETB) receptors are cultured in F12 medium (cibcoBRL, Grand Island, N.Y.) containing 10% fetal bovine serum and 1× antibiotic-antimycotic (GibcoBRL). Cells are harvested, then centrifuged, and finally homogenized in buffer containing 1 mM EDTA and […] Tris, pH 8.0. The cell debris is removed by brief centrifugation, and then the supernatant centrifuged again at 50,000×g for 10 minutes. The resulting pellet is resuspended in Hanks' balanced salt solution at a protein concentration of […] and stored in aliquots at -80° C. Competition binding is carried out by in incubating 0.2-1.0 mg of membrane protein from CHO-ETA or CHO-ETB cells with 12,000 cpm [^125 I] ET-1 (New England Nuclear, Boston, Mass.) with or without the competing ligand for 2 hours at 37° C. in a buffer containing 0.2 mg/ml bovine serum albumin, 0.002% Triton X-100, 0.02% NaN3, and […] Tris, pH 7.0. The reaction is terminated by filtration through a cell harvester (Brandel, Gaitherburg, Md.) using GF/C filters. Triplicate samples are carried out in each experiment, and if appropriate, the full dose-response curve for each competing ligand is performed at least three times. […]

ETA = biological target: T3, ETA (Rattus norvegicus, UniProt P26684); assay: Isolated tissue study, isometric tension, thoracic aorta; set-up: species or system Sprague-Dawley male rats; conditions: antagonist added 30 minutes prior to ET-1 or STX6c
T3 construct: from tissue; host or cells: thoracic aorta segments from Sprague-Dawley male rats
T3 sequence (P26684 21-426): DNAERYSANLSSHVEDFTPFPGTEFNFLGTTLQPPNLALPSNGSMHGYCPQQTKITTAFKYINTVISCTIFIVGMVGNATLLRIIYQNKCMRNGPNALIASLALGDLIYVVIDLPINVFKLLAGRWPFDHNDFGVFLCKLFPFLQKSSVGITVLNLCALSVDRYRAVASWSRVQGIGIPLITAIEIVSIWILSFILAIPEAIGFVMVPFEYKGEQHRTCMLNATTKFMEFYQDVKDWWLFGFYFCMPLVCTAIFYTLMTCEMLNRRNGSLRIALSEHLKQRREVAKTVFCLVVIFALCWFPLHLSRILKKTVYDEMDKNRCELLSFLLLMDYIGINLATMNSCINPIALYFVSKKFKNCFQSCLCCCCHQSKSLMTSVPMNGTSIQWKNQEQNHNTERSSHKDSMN
Description: as §1, §2

human ETB = biological target: T4, human ETB (Homo sapiens, UniProt P24530); assay: Competition binding of [125I] ET-1 to CHO-ETB membranes; conditions: [125I] ET-1, 2 hours at 37° C.
T4 construct: expressed in transfected cells; host or cells: CHO (Chinese hamster ovary) cells, membrane preparation
T4 sequence (P24530 27-442): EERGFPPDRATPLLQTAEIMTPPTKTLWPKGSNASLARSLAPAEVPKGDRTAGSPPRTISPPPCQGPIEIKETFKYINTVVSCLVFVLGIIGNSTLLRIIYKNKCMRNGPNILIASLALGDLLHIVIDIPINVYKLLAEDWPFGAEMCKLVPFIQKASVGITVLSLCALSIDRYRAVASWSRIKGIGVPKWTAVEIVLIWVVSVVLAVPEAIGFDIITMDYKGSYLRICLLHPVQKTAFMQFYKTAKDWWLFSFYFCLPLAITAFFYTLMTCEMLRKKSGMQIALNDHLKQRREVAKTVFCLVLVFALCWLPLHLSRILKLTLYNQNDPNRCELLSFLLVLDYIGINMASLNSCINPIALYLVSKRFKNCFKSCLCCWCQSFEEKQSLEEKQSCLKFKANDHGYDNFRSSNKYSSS
Description: as §3, §4

## CCCCS(=O)(=O)NC(=O)C1(NC(=O)[C@@H](Cc2ccc(-n3cccc3)cc2)N(C)C(=O)c2cc(C)cc(C)c2)CC1 [example 1, R-N-[N-3,5-dimethylbenzoyl-N-methyl-3-[4-(1-pyrrolyl)phenyl]alanyl]-1-aminocyclo propane-1-N-(n-butanesulfonyl)carboxamide]
ETB
  ET-induced contractile response in dog saphenous veins: inhibit ET-induced contractile response
Human ETA
  IC50: < 1 nM
ETA
  ET-induced contractile response in thoracic aorta: inhibit ET-induced contractile response
Human ETB
  IC50: < 1 nM

— patent US5977075A, “N-aroylamino acid amides as endothelin inhibitors” (Novartis AG, priority 1997, dated 1999)
